Data on 35 compounds can be found in PubChem BioAssay (NCI).

“And” between values parts separate entries of the source, which are not always exact repeats. Equal values may be shown once.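 Five compound concentrations were applied to cells in 96-well plates for 48 hours; endpoints were derived by simple linear interpolation of the resulting dose-response curve. GI50 is the concentration that inhibits growth by half. TGI: total growth inhibition.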 Some results are limits rather than exact numbers.

This test concerns MDA-MB-468 breast. The test is described as follows: NCI-60 cell line screen, 48 h.
For `COc1ccc(C(=O)c2ccc([As]=O)cc2)cc1` (stereo not drawn), the GI50 was 69.2 nM and the TGI worked out at 242 nM.

As for `Cn1cc(C2=C(c3cn(C4CCN(Cc5ccccn5)CC4)c4ccccc34)C(=O)NC2=O)c2ccccc21`, the GI50 is 2080 nM and the TGI was > 100000 nM. Taken in the same sequence, the figures for `CN1/C(=C\C=C\C2=[N+](C)c3ccccc3C2(C)C)C(C)(C)c2ccccc21` were 21.7 nM and 123 nM. On the same counts, the results for `CCCCCCCCCCCCCCCC[N+]1(C)CCOCC1` are 374 nM and 2160 nM. Consider `C(=N\Nc1nnn(Cc2ccccc2)n1)/c1ccccc1`, for which the GI50 is 1480 nM and the TGI was found to be 11900 nM. Taken in the same sequence, the figures for `C=C1C(=O)O[C@H]2[C@H]1CC/C(C=Nc1c(N)cc(C(F)(F)F)cc1Br)=C\CC[C@@]1(C)O[C@@H]21` were 1880 nM and 4190 nM. `CCC1=CC2CN(C1)Cc1c([nH]c3ccccc13)[C@@](C(=O)OC)(c1cc3c(cc1OC)N(C)[C@H]1[C@@](O)(C(=O)OC)[C@H](OC(C)=O)[C@]4(CC)C=CCN5CC[C@]31[C@@H]54)C2` (stereo partly drawn) came in with a TGI of 21000 nM. Consider `CN(C)C(=O)O[C@H]1CN[C@H](C#Cc2cc3ncnc(Nc4ccc(OCc5cccc(F)c5)c(Cl)c4)c3s2)C1`, for which the GI50 is 595 nM and the TGI was determined as 5110 nM. On the same counts, the results for `O=C(Nc1ccc(Cl)c(Cl)c1)NS(=O)(=O)c1cnccc1Oc1ccc(F)cc1` are 4260 nM and > 100000 nM. Taken in the same sequence, the figures for `COc1ccc(OC)c(Cn2cc3c(c2-c2ccccc2)CCc2cnoc2-3)c1` were 2640 nM and 11500 nM. On the same counts, the results for `CCCCn1c(-c2ccc(C(=O)O/N=C(\N)c3ccc4c(c3)OCO4)cc2)nc(-c2ccccc2)c1-c1ccccc1` are 3830 nM and > 100000 nM. As for `CN(C)c1ccc(-c2ccc(-c3ccc(C(=N)N)cc3)s2)cc1`, the GI50 is 1940 nM and the TGI was 3760 nM. On the same counts, the results for `O=C1NC(=O)c2c1c1c3ccccc3ccc1c1[nH]c3ccccc3c21` are 953 nM and 8870 nM. Taken in the same sequence, the figures for `CNC(=O)c1nn(C)c2c1C(C)(C)Cc1cnc(Nc3ccc(N4CCN(C)CC4)cc3)nc1-2` were 813 nM and > 4200 nM. Taken in the same sequence, the figures for `O=c1c(F)cn(Cc2ccccc2CCl)c(=O)n1Cc1ccccc1CCl` were 684 nM and 2270 nM. Turning to `CCNC(=O)c1noc(-c2cc(C(C)C)c(O)cc2O)c1-c1ccc(CN2CCOCC2)cc1`, the GI50 was < 10 nM and the TGI stood at 55 nM.

Consider `O=S(=O)(CCCl)c1ccc(Cl)cc1`, for which the GI50 was 1820 nM and the TGI is 5770 nM. On the same counts, the results for `C/C(=N\NC(=S)Nc1ccc(Br)cc1)c1cc2ccccc2oc1=O` are 1220 nM and 5820 nM. With `O=C(O)[C@@H](Cc1ccc2ccccc2c1)NC(=O)n1c2ccccc2c2ccccc21`, the GI50 was 1900 nM and the TGI amounted to 7170 nM.

Turning to `OC(c1cc2ccc(C(F)(F)F)cc2c2cc(C(F)(F)F)ccc12)C1CCCCN1` (stereo not drawn), the GI50 is 1600 nM and the TGI was found to be 3090 nM.

`Cc1ccc(-c2nc3nc(-c4ccc(F)cc4)nc(N4CCCNCC4)c3o2)cc1`: the GI50 is 1580 nM and the TGI is 3180 nM. As to `CCOc1ccc(-c2nnc(C3CC(NC(=O)c4cccc5nccnc45)C3)n2-c2ccccc2F)nc1` (stereo not drawn), the GI50 was 10000 nM and the TGI turned out to be 71500 nM. Taken in the same sequence, the figures for `c1ccc2[nH]c(-c3ccc(Nc4nc(N5CCCCC5)nc(N5CCOCC5)n4)cc3)nc2c1` were 2680 nM and 6510 nM. On the same counts, the results for `O=C1OCC2=C1C(c1ccccc1)c1cc3c(cc1N2CCO)OCO3` (stereo not drawn) are 1220 nM and 4610 nM.

Regarding `Nc1ccc(/C=C/C(=O)NCc2cc3cc(-c4ccc(C(=O)N5CCC(F)(F)CC5)cc4)cc(-c4ccc(F)cc4)c3o2)cn1`, the GI50 was 22600 nM and the TGI is > 100000 nM. Take `O=S(=O)(NCCCNc1nccc(-c2c(-c3ccc(F)cc3)nc3sccn23)n1)c1ccc2ccccc2c1`: the GI50 is 3870 nM and the TGI was > 100000 nM.

Consider `COc1cc(NCCCCCCCNC(C)C)c2nccc(C)c2c1`, for which the GI50 was 3110 nM and the TGI was 14700 nM. On the same counts, the results for `C=C1C(=O)O[C@H]2[C@H]1CC/C(COC(=O)NCC(C)c1ccc(CC(C)C)cc1)=C\CC[C@@]1(C)O[C@@H]21` (stereo partly drawn) are 656 nM and 1840 nM. On the same counts, the results for `O=c1oc2ccc(I)cc2c(=O)n1-c1ccc(Cl)cc1F` are 2110 nM and 5810 nM. On the same counts, the results for `COc1ccc(CN2C3CC2CN(c2ccc(-c4cc(OCC(C)(C)O)cn5ncc(C#N)c45)cn2)C3)cn1` are 8090 nM and > 100000 nM. Turning to `O=C1CCCCN1CCCCC#Cc1cccc(C#Cc2cccnc2)c1`, the GI50 is 10200 nM and the TGI was determined as 28500 nM.

For `O=C(N/N=C/c1ccccc1O)c1ccccc1`, the GI50 is 292 nM and the TGI was > 100000 nM.

On to `CCc1c2c(nc3ccc(OC(=O)N4CCC(N5CCCCC5)CC4)cc13)-c1cc3c(c(=O)n1C2)COC(=O)[C@]3(O)CC`, for which the TGI was 1790 nM and 1510 nM and 5770 nM. Take `C=C1C[C@@H]2CC[C@@]34C[C@H]5O[C@H]6[C@@H](O3)[C@H]3O[C@H](CC[C@@H]3O[C@H]6[C@@H]5O4)CC(=O)C[C@@H]3[C@@H](OC)[C@@H](C[C@H](O)CN)O[C@H]3C[C@H]3O[C@@H](CC[C@@H]1O2)C[C@@H](C)C3=C`: the GI50 is < 10 nM and the TGI was found to be 66.1 nM. Taken in the same sequence, the figures for `COC(=O)C1(C)Cc2cc(OC(C)=O)c(OC(C)=O)cc2N1` (stereo not drawn) were 1900 nM and 6530 nM.
